molecular target: PD-1/PD-L1 (Homo sapiens (Human), UniProt Q9NZQ7); experiment: Homogeneous Time-Resolved Fluorescence (HTRF) binding assay; settings: CisBio kit #64CUS000C-1, read-out: IC50 of compounds binding to PD-1/PD-L1
Description: Homogeneous Time-Resolved Fluorescence (HTRF) binding assay was used to determine the binding activity of the compound of the present invention to PD-1/PD-L1.
The purchased kit (CisBio, #64CUS000C-1) contained reagents required for assays such as PD-1, PD-L1, anti-tag1-Eu, Anti-tag2-XL665, Dilute Buffer, and Detection Buffer.
1. The compound was formulated to 10 concentrations with a 3-fold gradient with 100% DMSO.
2. The solution of the compound in DMSO was added to Dilute Buffer, mixed thoroughly, then transferred to a 96-well plate.
3. PD-L1 was diluted with Dilute Buffer, then added to the above 96-well plate.
4. PD-1 was diluted with Dilute Buffer and added to the above 96-well plate, which was then incubated at room temperature for 30 minutes.
5. A portion of anti-tag1-Eu and a portion of anti-tag2-XL665 were added to Detection Buffer, mixed thoroughly and transferred to the above 96-well plate.
6. The mixture in the above 96-well plate was incubated at room temperature for 1 to 24 hours.
7. HTRF values were read with Envision.

Chain of PD-1/PD-L1 (Q9NZQ7 19-238): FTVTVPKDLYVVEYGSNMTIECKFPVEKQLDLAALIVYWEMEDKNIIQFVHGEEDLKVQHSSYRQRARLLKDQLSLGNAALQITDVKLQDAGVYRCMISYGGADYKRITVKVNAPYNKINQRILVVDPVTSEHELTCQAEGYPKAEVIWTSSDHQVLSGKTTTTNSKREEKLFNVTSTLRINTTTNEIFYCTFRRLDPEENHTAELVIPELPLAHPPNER

Row | Compound | IC50 [nM]
1 | Cc1cc(/C=C/c2cccc(-c3ccc4c(c3)OCCO4)c2C)cc(OCc2cccc(C#N)c2)c1CN1CCC[C@H]1CO [Compound 1, (S,E)-3-((5-(3-(2,3-Dihydrobenzo[b][1,4]dioxin-6-yl)-2-methylstyryl)-2-((2-(hydroxymethyl)pyrrolidin-1-yl)methyl)-3-methylphenoxy)methyl)benzonitrile] | 1530
2 | COc1cc(C#Cc2cccc(-c3ccccc3)c2C)cc(OC)c1CN1CCC[C@H]1CO [Compound 2, (S)-(1-(2,6-Dimethoxy-4-((2-methyl-biphenyl-3-yl)ethynyl)benzyl)pyrrolidin-2-yl)methanol] | 1340
3 | COc1cc(/C=C/c2cccc(-c3ccccc3)c2C)cc(OC)c1CN1CCC[C@H]1CO [Compound 3, (S,E)-(1-(2,6-Dimethoxy-4-((2-methylbiphenyl-3-yl)vinyl)benzyl)pyrrolidin-2-yl)methanol] | 2700
4 | COc1cc(/C=C/c2cccc(-c3ccccc3)c2C)cc(OC)c1CNCCO [Compound 4, (E)-2-((2,6-Dimethoxy-4-(2-(2-methylbiphenyl-3-yl)vinyl)benzyl)amino)ethan-1-ol] | 280
5 | COc1cc(/C=C/c2cccc(-c3ccccc3)c2C)cc(OC)c1CNC(CO)CO [Compound 5, (E)-2-((2,6-Dimethoxy-4-(2-(2-methylbiphenyl-3-yl)vinyl)benzyl)amino)propane-1,3-diol] | 60
6 | COc1cc(/C=C/c2cccc(-c3ccccc3)c2C)cc(OC)c1CNCCNC(C)=O [Compound 6, (E)-N-(2-((2,6-Dimethoxy-4-(2-(2-methylbiphenyl-3-yl)vinyl)benzyl)amino)ethyl)acetamide] | 150
7 | Cc1c(/C=C/c2ccc(CN3CCC[C@H]3CO)cc2Cl)cccc1-c1ccccc1 [Compound 11, (S,E)-(1-(3-Chloro-4-(2-(2-methylbiphenyl-3-yl)vinyl)benzyl)pyrrolidin-2-yl)methanol] | 460
8 | Cc1cc(CN2CCC[C@H]2CO)ccc1/C=C/c1cccc(-c2ccccc2)c1C [Compound 12] | 410
9 | Cc1cc(CN[C@H](C)C(=O)O)ccc1/C=C/c1cccc(-c2ccccc2)c1C [Compound 13, (R,E)-2-(3-Methyl-4-(2-(2-methylbiphenyl-3-yl)vinyl)benzylamino)propanoic Acid] | 240
10 | COc1cc(/C=C/c2cccc(-c3ccccc3)c2C#N)cc(OC)c1CN1CCC[C@H]1CO [Compound 14, (S,E)-3-(4-((2-Hydroxymethylpyrrolidin-1-yl)methyl)-3,5-dimethoxystyryl)biphenyl-2-carbonitrile] | 390
11 | COc1cc(/C=C/c2cccc(-c3ccc4c(c3)OCCO4)c2C)cc(OC)c1CN1CCC[C@H]1CO [Compound 15] | 240
12 | Cc1c(/C=C/c2ccc(CN3CCC[C@H]3CO)cn2)cccc1-c1ccccc1 [Compound 16, (S,E)-(1-((6-(2-(2-Methylbiphenyl-3-yl)vinyl)pyridin-3-yl)methyl)pyrrolidin-2-yl)methanol] | 590
13 | Cc1c(/C=C/c2ccc(CNCCO)cn2)cccc1-c1ccc2c(c1)OCCO2 [Compound 17, (E)-2-((6-(3-(2,3-Dihydrobenzo[b][1,4]dioxin-6-yl)-2-methylstyryl)pyridin-3-yl)methylamino)ethanol] | 310
14 | Cc1c(/C=C/c2ccc(CNCC(O)CC(=O)O)cn2)cccc1-c1ccc2c(c1)OCCO2 (stereo not shown) [Compound 18, (E)-4-((6-(3-(2,3-Dihydrobenzo[b][1,4]dioxin-6-yl)-2-methylstyryl)pyridin-3-yl)methylamino)-3-hydroxybutanoic Acid] | 190
15 | Cc1cc(CN2CCCC(O)C2C(=O)O)ccc1/C=C/c1cccc(-c2ccccc2)c1C (stereo not shown) [Compound 19, (E)-3-Hydroxy-1-(3-methyl-4-(2-(2-methylbiphenyl-3-yl)vinyl)benzyl)piperidin-2-carboxylic Acid] | 330
16 | COC(=O)C1C(O)CCCN1Cc1ccc(/C=C/c2cccc(-c3ccccc3)c2C)c(Cl)c1 (stereo not shown) [Compound 20, (E)-Methyl 1-(3-chloro-4-(2-(2-methylbiphenyl-3-yl)vinyl)benzyl)-3-hydroxypiperidin-2-carboxylate] | > 10000
17 | Cc1c(/C=C/c2ccc(CN3CCCC(O)C3C(=O)O)cc2F)cccc1-c1ccccc1 (stereo not shown) [Compound 21, (E)-3-Hydroxy-1-(3-fluoro-4-(2-(2-methylbiphenyl-3-yl)vinyl)benzyl)piperid in-2-carboxylic Acid] | 780
18 | Cc1cc(CN2CCCC(O)C2CO)ccc1/C=C/c1cccc(-c2ccccc2)c1C (stereo not shown) [Compound 22, (E)-2-Hydroxymethyl-1-(3-methyl-4-(2-(2-methylbiphenyl-3-yl)vinyl)benzyl)piperidin-3-ol] | 550
19 | Cc1c(/C=C/c2ccc(CN3CCCC(O)C3CO)cc2Cl)cccc1-c1ccccc1 (stereo not shown) [Compound 23, (E)-2-Hydroxymethyl-1-(3-chloro-4-(2-(2-methylbiphenyl-3-yl)vinyl)benzyl) piperidin-3-ol] | 690

Row | Compound | IC50 [nM]
20 | Cc1c(/C=C/c2ccc(CN3CCCC(O)C3C(N)=O)cc2F)cccc1-c1ccccc1 (stereo not shown) [Compound 24, (E)-1-(3-Fluoro-4-(2-(2-methylbiphenyl-3-yl)vinyl)benzyl)-3-hydroxypiperidin-2-carboxamide] | > 10000
21 | COC(=O)C1C(O)CCCN1Cc1c(OC)cc(/C=C/c2cccc(-c3ccccc3)c2C)cc1OC (stereo not shown) [Compound 25, (E)-Methyl 1-(2,6-dimethoxy-4-(2-(2-methylbiphenyl-3-yl)vinyl)benzyl)-3-hydroxypiperidin-2-carboxylate] | 5950
22 | Cc1cc(CN2CCC[C@H](O)[C@@H]2C(N)=O)ccc1/C=C/c1cccc(-c2ccccc2)c1C [Compound 26, (2R,3S,E)-3-Hydroxy-1-(3-methyl-4-(2-(2-methylbiphenyl-3-yl)vinyl)benzyl)piperidin-2-carboxamide] | 1300
23 | Cc1cc(CN2CCC[C@@H](O)[C@@H]2C(N)=O)ccc1/C=C/c1cccc(-c2ccccc2)c1C [Compound 27, (2R,3R,E)-3-Hydroxy-1-(3-methyl-4-(2-(2-methylbiphenyl-3-yl)vinyl)benzyl)piperidin-2-carboxamide] | 920
24 | Cc1cc(CN2CCCC(O)C2C(=O)O)ccc1C#Cc1cccc(-c2ccccc2)c1C (stereo not shown) [Compound 28, 1-(3-Methyl-4-((2-methylbiphenyl-3-yl)ethynyl)benzyl)-3-hydroxypiperidin-2-carboxylic Acid] | 2160
25 | Cc1c(C#Cc2ccc(CN3CCCC(O)C3C(=O)O)cc2F)cccc1-c1ccccc1 (stereo not shown) [Compound 29, 1-(3-Fluoro-4-((2-methylbiphenyl-3-yl)ethynyl)benzyl)-3-hydroxypiperidin-2-carboxylic Acid] | 2820
26 | COc1cc(/C=C/c2cccc(-c3ccccc3)c2C)cc(OC)c1CN1CCCC(O)C1C(=O)O (stereo not shown) [Compound 30, (E)-1-(2,6-Dimethoxy-4-(2-(2-methylbiphenyl-3-yl)vinyl)benzyl)-3-hydroxy piperidin-2-carboxylic Acid] | 460
27 | Cc1cc(CNC(CO)CO)ccc1/C=C/c1cccc(-c2ccccc2)c1C [Compound 31, (E)-2-(3-Methyl-4-(2-(2-methylbiphenyl-3-yl)vinyl)benzylamino)-1,3-propanediol] | 240
28 | Cc1c(/C=C/c2ccc(CNC(CO)CO)cc2Cl)cccc1-c1ccccc1 [Compound 32, (E)-2-(3-Chloro-4-(2-(2-methylbiphenyl-3-yl)vinyl)benzylamino)-1,3-propanediol] | 250
29 | Cc1c(/C=C/c2cc(CN[C@H](CO)C(=O)O)ccc2Cl)cccc1-c1ccccc1 [Compound 35, (R,E)-2-(4-Chloro-3-(2-(2-methylbiphenyl-3-yl)vinyl)benzylamino)-3-hydroxypropionic Acid] | 250
30 | Cc1ccc(CN[C@H](CO)C(=O)O)cc1/C=C/c1cccc(-c2ccccc2)c1C [Compound 36, (R,E)-2-(4-Methyl-3-(2-(2-methylbiphenyl-3-yl)vinyl)benzylamino)-3-hydroxypropionic Acid] | 100
31 | COc1cc(/C=C/c2cccc(-c3ccccc3)c2C)cc(OC)c1CNCC(=O)O [Compound 37, (E)-2-(2,6-Dimethoxy-4-(2-(2-methylbiphenyl-3-yl)vinyl)benzylamino)acetic Acid] | 100
32 | Cc1cc(CN[C@H](CO)C(=O)O)ccc1/C=C/c1cccc(-c2ccccc2)c1C [Compound 38, (R,E)-2-(3-Methyl-4-(2-(2-methylbiphenyl-3-yl)vinyl)benzylamino)-3-hydroxypropionic Acid] | 230
33 | COc1nc(/C=C/c2cccc(-c3ccccc3)c2C)ccc1CNCCNC(C)=O [Compound 39, (E)-N-(2-(((2-methoxy-6-(2-(2-methylbiphenyl)vinyl)pyridin-3-yl)methyl)amino)ethyl)acetamide] | 170
34 | COc1nc(/C=C/c2cccc(-c3ccccc3)c2C)ccc1CNC(CO)CO [Compound 40] | 90
35 | COc1nc(/C=C/c2cccc(-c3ccccc3)c2C)ccc1CN[C@H](CO)C(=O)O [Compound 41, (R,E)-3-Hydroxy-2-((2-methoxy-6-(2-(2-methylbiphenyl-3-yl)vinyl)pyridin-3-yl)methylamino)propanoic Acid] | 5090
36 | COc1nc(/C=C/c2cccc(-c3ccccc3)c2C)ccc1CNC1CCCCC1NC(C)=O (stereo not shown) [Compound 42] | 1100
37 | COc1cc(/C=C/c2cccc(-c3ccccc3)c2C)cc(OC)c1CNC(CCO)C(=O)O (stereo not shown) [Compound 43, (E)-2-(2,6-Dimethoxy-4-(2-(2-methylbiphenyl-3-yl)vinyl)benzylamino)-4-hydroxybutanoic Acid] | 130
